Data reported in US20170298051A1, “ACTIVATOR OF ADIPONECTIN RECEPTOR” (THE UNIVERSITY OF TOKYO, priority 2013, published 2017).

Assays:
[1] = tested on: white adipose tissue (WAT); assay: White adipose tissue (WAT): inflammation and macrophage markers in mice fed a HF diet; type: in vivo
Description: Real-time PCR was carried out according to the method described previously^a,b,c. Total RNA was prepared from cells or tissues with Trizol (Invitrogen) according to the manufacturer's instructions. We used a real-time PCR method to quantify the mRNAs^19, with slight modifications.
Skeletal muscle homogenates were extracted, and tissue triglyceride content was determined as described previously^a-c, with some modifications. To investigate whether oxidative stress was increased, we measured lipid peroxidation, a marker of oxidative injury, as represented by plasma thiobarbituric acid reactive substance (TBARS) as described previously^4. Briefly, tissue samples were homogenized in a buffer solution containing 50 mM Tris-HCl (pH 7.4) and 1.15% KCl, and then centrifuged. The supernatant was used for the assay. The levels of lipid peroxidation in tissue homogenate and plasma were measured in terms of the amount of TBARS using the LPO test (Wako Pure Chemical Industries).

AdipoR1 = target: T1, AdipoR1 (Homo sapiens, UniProt Q96A54); assay: Surface plasmon resonance, affinity for AdipoR1; type: binding; set-up: made in house; conditions: SPR
T1 sequence (Q96A54 1-375): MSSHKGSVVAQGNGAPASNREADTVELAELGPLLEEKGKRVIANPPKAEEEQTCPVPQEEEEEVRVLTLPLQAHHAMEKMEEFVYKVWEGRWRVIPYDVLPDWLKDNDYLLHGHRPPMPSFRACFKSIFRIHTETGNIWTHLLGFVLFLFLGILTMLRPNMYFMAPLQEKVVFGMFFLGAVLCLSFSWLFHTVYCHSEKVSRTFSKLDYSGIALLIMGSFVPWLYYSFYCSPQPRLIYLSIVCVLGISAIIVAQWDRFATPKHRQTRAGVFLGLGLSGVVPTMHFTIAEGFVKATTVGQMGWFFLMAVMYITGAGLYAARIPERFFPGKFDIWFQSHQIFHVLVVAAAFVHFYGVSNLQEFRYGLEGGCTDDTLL
Description: Surface plasmon resonance measurements were performed by a BIAcore X100 system (GE Healthcare) and sensor chip SA (GE Healthcare). Human AdipoR1 and AdipoR2 were expressed with the baculovirus system, and purified to homogeneity. The AdipoR1 and AdipoR2 samples were then reconstituted into egg-phosphatidylcholine liposomes containing biotinyl phosphatidylethanolamine (Avanti), as previously reported^a. Mouse full-length adiponectin was generated as previously described^b,c,d,e. AdipoR1 and AdipoR2 were immobilized onto a sensor chip SA to levels of 2,500-3,000 response units (RU) using standard immobilization protocols (GE Healthcare).
Experiments were performed at 25° C. using AdipoRon (0.49-31.25 μM) and adiponectin (1.5 ng-3.75 μg) and using electrophoresis buffer (20 mM Hepes (pH 7.4), 200 mM NaCl, 10% glycerol, […] surfactant P20). Biacore X100 Evaluation Software was used to determine the equilibrium dissociation constant (KD) of the compound or proteins.

mice on a HF diet = assay: Hyperinsulinemic euglycemic clamp study in mice on a HF diet; type: in vivo
Description: Clamp studies were carried out as described previously^a,b, with slight modifications. In brief, 2-3 days before the study, an infusion catheter was inserted into the right jugular vein under general anesthesia with sodium pentobarbital. Studies were performed on mice under conscious and unstressed conditions after a 6 h fast. A primed continuous infusion of insulin (Humulin R, Lilly) was given (10.0 milliunits/kg/min),and the blood glucose concentration, monitored every 5 min, was maintained at 120 mg/dl by administration of glucose (5 g of glucose per 10 ml enriched to 20% with [6,6-^2H2] glucose (Sigma)) for 120 min. Blood was sampled via tail tip bleeds at 90, 105, and 120 min for determination of the rate of glucose disappearance (Rd). Rd was calculated according to nonsteady-state equations, and endogenous glucose production (EGP) was calculated as the difference between Rd and exogenous glucose infusion rates^a,b,c.

Lepr−/− (db/db) mice = assay: Anti-diabetic effects in db/db mice; type: in vivo
Description: Mice were 6-10 week of age at the time of the experiment. They were housed in cages and maintained on a 12 hr light-dark cycle.
Male Lepr^−/− (aged 6-10 week) were purchased from Jackson Laboratory. When the mice in the same genotype received different treatments, they were randomly assigned to treatment groups.
Plasma glucose levels were determined by using a glucose B-test (Wako Pure Chemical Industries). Plasma insulin was measured with an insulin immunoassay (Shibayagi). Plasma NEFAs (Wako Pure Chemical Industries) were assayed by enzymatic methods.
The oral glucose tolerance test (OGTT) and insulin tolerance test (ITT) were conducted as previously described^a,b with slight modifications. The areas of the glucose and insulin curves were calculated by multiplying the cumulative mean height of the glucose values (1 mg/ml=1 cm) and insulin values (1 ng/ml=1 cm), respectively, by time (60 min=1 cm)^c,a. The insulin resistance index was calculated from the product of the areas of glucose and insulin×10^−2 in the glucose tolerance test. The results are expressed as the percentage of the value respect to control littermates.

[2] = Measurement of plasma concentrations of AdipoRon; type: in vivo, C57BL/6 mice; conditions: C57BL/6, mouse, C57B6 WT mice, oral 50 mg/kg, read-out: maximal concentration (Cmax) in plasma
Description: We measured the plasma concentrations of AdipoRon by HPLC and TSQ Quantum Ultra (ThermoFisher) in C57BL/6 mice orally administered with 50 mg of AdipoRon per kg bodyweight. For quantitative analyses, 20 μl of plasma was mixed with acetonitrile. The mixture was mixed vigorously for 30 sec and then centrifuged at 10,000 rpm for 3 min at 4° C. An aliquot of the supernatant was injected into the quantitative LC/MS system. Quantitative analyses were performed using an Accela HPLC system (ThermoFisher). The liquid chromatographic separations were carried out by using syncronis C18, 150×2.1 mm, 3 μm. Column temperature was held at 40° C. The flow rate was 0.2 ml/min. Elution solvent A was 0.1% formic acid in water and solvent B was 0.1% formic acid in methanol. The chromatographic conditions were as follows: 0-5 min 45% A/55% B; 5-6.5 min 5% A/95%B, 6.5-10 min 45%A/55%B. A typical injection volume was 3 μl. Quantitative analyses were performed using a TSQ Quantum Ultra triple-stage quadrupole mass spectrometer. Electro-spray ionization in positive ion mode (ESI+) was used for ionization and selective reaction monitoring (SRM) mode was chosen for detection. The optimized precursor ions pairs were m/z 429.251→91.057 for AdipoRon. […]

[3] = Adipor1/r2 double-knockout mice
[4] = WT mice on HF diet, 10 days of administration

Structure (SMILES): O=C(COc1ccc(C(=O)c2ccccc2)cc1)NC1CCN(Cc2ccccc2)CC1 [Compound 73, 2-(4-benzoyl-phenoxy)-N-(1-benzylpiperidin-4-yl)acetamide]
- changes of macrophage markers in the WAT [1, 3]: these changes were not observed
- expression levels of genes encoding pro-inflammatory cytokines in the WAT ([1]; Adipor1/r2 double-knockout mice fed with a HF diet): such effect was not observed
- expression levels of genes encoding pro-inflammatory cytokines (Tnf, Il6, Ccl2) in the WAT ([1]; WT mice fed with a HF diet): reduced the expression levels
- levels of macrophage markers such as TBARS and F4/80 (Emr1), M1 marker CD11c (Itgax) in the WAT ([1]; WT mice fed with a HF diet): reduced the levels
- levels of markers for alternatively activated M2 macrophages such as CD206 (Mrc1) in the WAT ([1]; WT mice fed with a HF diet): not affect the levels
- Rmax (AdipoR1): 14.6 RU
- Kd (AdipoR1; 25° C., read-out: equilibrium dissociation constant (KD)): 1.8 µM
- GIR, EGP and Rd (mice on a HF diet; [3]): None of these parameters were improved
- endogenous glucose production (EGP) (mice on a HF diet; [4]): significantly suppressed
- glucose disposal rate (Rd) (mice on a HF diet; [4]): significantly increased
- glucose infusion rate (GIR) (mice on a HF diet; [4]): significantly increased
- plasma glucose level (Lepr−/− (db/db) mice; oral 50 mg/kg body weight): decreased plasma glucose level
- glucose intolerance, insulin resistance and dyslipidemia (Lepr−/− (db/db) mice; oral, 2 weeks): significantly ameliorated
- Cmax [2]: 11.8 µM
